Experiment [1] deals with HEK293 cells cotransfected with the FOP control vector. Kind of experiment: HEK293 FOP assay (control reporter with non-functional TCF elements). The class given is cell-based. To be noted: Homo sapiens, 16 hours. An outline of the steps: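 Stable HEK293 line carrying FOP control reporter (randomized non-functional TCF sites, with pcDNA3), Geneticin-selected, plated 24 h before assay. Stimulated with recombinant human Wnt-3a (2500-5 ng/ml) and compounds 50 μM–15 nM (3.16-fold steps) in CAFTY buffer pH 7.4 with 2 mM Ca2+, 0.01% BSA, run parallel to TOP line.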

Experiment [2] concerns wildtype Wnt signaling cascade. Briefly: HEK293 TOP assay (Super TopFlash luciferase reporter, Wnt-3a stimulated). To be noted: Homo sapiens, HEK293, 16 h, HEK293 TOP reporter cells, Wnt3a at EC50, 16 hours. The class given is cell-based. Put shortly: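 HEK293 cells stably carrying Super TopFlash (TOP) run in parallel with FOP cells, 10000/well plated 24 h ahead, stimulated with recombinant human Wnt-3a. Compounds tested 50 μM to 15 nM in 3.16-fold steps in CAFTY buffer pH 7.4 with 2 mM Ca^2+ and 0.01% BSA; luciferase read-out.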
A general note: Reporter assays use an easily measured gene product as a stand-in for the process of interest.

In experiment [3] the target is T1, TNKS2 (Homo sapiens, UniProt Q9H2K2).
T1 construct: purchased BPS Bioscience, San Diego, USA 80572 (TNKS2 Histone Ribosylation Assay Kit)
T1 sequence (Q9H2K2 1-1166): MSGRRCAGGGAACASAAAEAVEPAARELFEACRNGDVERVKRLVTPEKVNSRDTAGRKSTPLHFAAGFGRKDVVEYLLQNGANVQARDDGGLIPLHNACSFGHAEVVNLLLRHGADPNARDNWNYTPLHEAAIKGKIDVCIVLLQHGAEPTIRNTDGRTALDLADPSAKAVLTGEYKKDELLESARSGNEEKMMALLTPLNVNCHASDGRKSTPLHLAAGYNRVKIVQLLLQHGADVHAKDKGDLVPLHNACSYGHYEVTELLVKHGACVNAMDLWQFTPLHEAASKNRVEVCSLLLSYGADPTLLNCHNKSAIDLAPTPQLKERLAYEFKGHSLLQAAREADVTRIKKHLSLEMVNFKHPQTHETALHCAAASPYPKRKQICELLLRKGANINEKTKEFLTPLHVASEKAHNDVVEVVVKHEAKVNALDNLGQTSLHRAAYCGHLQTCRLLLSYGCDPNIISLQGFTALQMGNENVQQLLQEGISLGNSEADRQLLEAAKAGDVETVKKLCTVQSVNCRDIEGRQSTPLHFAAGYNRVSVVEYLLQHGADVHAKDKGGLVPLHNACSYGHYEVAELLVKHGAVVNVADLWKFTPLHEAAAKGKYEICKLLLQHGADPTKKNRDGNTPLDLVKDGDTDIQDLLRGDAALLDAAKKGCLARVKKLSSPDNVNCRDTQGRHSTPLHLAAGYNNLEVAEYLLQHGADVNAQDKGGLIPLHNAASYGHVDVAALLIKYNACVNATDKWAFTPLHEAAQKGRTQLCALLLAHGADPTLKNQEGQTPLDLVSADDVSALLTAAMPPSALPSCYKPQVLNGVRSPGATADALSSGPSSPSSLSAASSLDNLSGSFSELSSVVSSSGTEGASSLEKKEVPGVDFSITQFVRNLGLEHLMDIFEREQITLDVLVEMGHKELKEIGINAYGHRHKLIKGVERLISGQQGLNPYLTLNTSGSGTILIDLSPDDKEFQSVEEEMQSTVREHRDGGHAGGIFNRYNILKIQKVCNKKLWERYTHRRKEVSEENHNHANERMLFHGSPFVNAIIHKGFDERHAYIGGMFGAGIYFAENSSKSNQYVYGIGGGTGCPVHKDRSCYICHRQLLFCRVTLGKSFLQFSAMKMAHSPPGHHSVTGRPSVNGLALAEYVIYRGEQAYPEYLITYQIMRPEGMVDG
Briefly: TNKS2 Assay B (auto-parsylation, [3H]-NAD+ SPA). The class given is biochemical. To be noted: 6 nM TNKS2, auto-parsylation, over night at room temperature.

Usually IC50 stands for the midpoint of a concentration-inhibition curve. Read a low IC50 as greater potency.

SMILES strings stand for the structures.

For the compound `Cc1cc(C)n2ncc(C(=O)N[C@H]3CC[C@@]4(CCCN(c5cc(C)c(F)cc5Cl)C4=O)CC3)c2n1` [Example 302, N-[(trans)-2-(2-chloro-4-fluoro-5-methylphenyl)-1-oxo-2-azaspiro[5.5]undec-9-yl]-5,7-dimethylpyrazolo[1,5-a]pyrimidine-3-carboxamide], the results for the IC50 in experiment [1], in experiment [2] and in experiment [3] were at least 0.5 µM, 0.042 µM and 69 nM, respectively.
The matching figures for `COCCNC(=O)c1nc[nH]c1C(=O)N[C@H]1CC[C@@]2(CCN(c3cc(C)c(F)cc3Cl)C2=O)CC1` [Example 334, N^5-[(trans)-2-(2-chloro-4-fluoro-5-methylphenyl)-1-oxo-2-azaspiro[4.5]dec-8-yl]-N^4-(2-methoxyethyl)-1H-imidazole-4,5-dicarboxamide]: at least 50 µM, 0.0095 µM and 4.9 nM.
As for `COC(=O)c1cc(C)nc2c(C(=O)N[C@H]3CC[C@H](C(=O)Nc4c(F)cc(F)cc4Cl)CC3)cnn12` [Example 351, methyl 3-({trans-4-[(2-chloro-4,6-difluorophenyl)carbamoyl]cyclohexyl}carbamoyl)-5-methylpyrazolo[1,5-a]pyrimidine-7-carboxylate], the results for the IC50 in experiment [1], in experiment [2] and in experiment [3] were at least 50 µM, 6.7 µM and 56 nM, respectively.
For `COC(=O)c1cc(C)nc2c(C(=O)N[C@H]3CC[C@H](C(=O)Nc4ccc(F)cc4Cl)CC3)cnn12` [Example 352, methyl 3-({trans-4-[(2-chloro-4-fluorophenyl)carbamoyl]cyclohexyl}carbamoyl)-5-methylpyrazolo[1,5-a]pyrimidine-7-carboxylate], the IC50 in experiment [1] is at least 50 µM; in experiment [2], 7.5 µM; in experiment [3], 120 nM.
`Cc1c(C(C)(C)O)cnc2c(C(=O)N[C@H]3CC[C@H](C(=O)Nc4ccc(F)cc4Cl)CC3)cnn12` [Example 359, N-{trans-4-[(2-chloro-4-fluorophenyl)carbamoyl]cyclohexyl}-6-(2-hydroxypropan-2-yl)-7-methylpyrazolo[1,5-a]pyrimidine-3-carboxamide]: the IC50 in experiment [1] is at least 50 µM; in experiment [2], 4 µM; in experiment [3], over 10000 nM.
The matching figures for `O=C(N[C@H]1CC[C@H](C(=O)Nc2ccc(F)cc2Cl)CC1)c1cnc2ccc(O)nn12` [Example 360, N-{trans-4-[(2-chloro-4-fluorophenyl)carbamoyl]cyclohexyl}-6-hydroxyimidazo[1,2-b]pyridazine-3-carboxamide]: at least 50 µM, 10 µM and 1700 nM.
With `Cc1nc2c(C(=O)N[C@H]3CC[C@H](C(=O)Nc4c(F)cc(F)cc4Cl)CC3)cnn2c2c1CCC2` [Example 363, N-{trans-4-[(2-chloro-4,6-difluorophenyl)carbamoyl]cyclohexyl}-5-methyl-7,8-dihydro-6H-cyclopenta[e]pyrazolo[1,5-a]pyrimidine-3-carboxamide], the IC50 in experiment [1] was at least 50 µM; in experiment [2], 0.021 µM; in experiment [3], 19 nM.

The values above are taken from patent publication US20180148418A1, “AMIDO-SUBSTITUTED CYCLOHEXANE DERIVATIVES” (Bayer Pharma Aktiengesellschaft, priority 2015, published 2018).
